How the values were obtained:
[1] = target: central benzodiazepine receptors (cerebral cortex); assay: Inhibition of binding of tritiated diazepam at the specific benzodiazepine receptors in the cerebral cortex
Protocol: The affinity of compounds of formula I to the central benzodiazepine receptors was determined according to the method described in Life Science 20, 2101-2110 (1977) and Science 198, 849-851 (1977). According to this method, the inhibition of the binding of tritiated diazepam at the specific benzodiazepine receptors in the cerebral cortex by the respective test substances is ascertained. The IC50 ("50% inhibiting concentration") is that concentration of the respective test substance which brings about a 50 percent inhibition of the specific binding of the tritiated diazepam at the specific benzodiazepine receptors in the cerebral cortex.

[2] = tested on: diazepam effect in the pentetrazole test; assay: Antagonism of diazepam in the pentetrazole test; format: in vivo, mice; details: for ED50: Mus musculus, po, 0.25 h, mice, diazepam 5 mg/kg i.p. 1 hour before pentetrazole 120 mg/kg i.p., test compound p.o. 15 minutes before pentetrazole
Protocol: This property was used to evaluate the test described hereinafter which permits the determination of compounds which are capable of antagonizing the central properties of 1,4-benzodiazepines which have tranquillizing activity.
The antagonistic activity of the compounds investigated, i.e. their ability to counteract the activity of the diazepam in the pentetrazole test, is determined by counting the mice which suffer convulsive attacks in this test.
(§1) In the following Table there are presented the results which have been obtained with representative members of the class of compound defined by formula I in the test previously described. The ED50 is the amount of test compound in mg/kg (p.o.) which counteracts in 50% of the animals the diazepam effect in the above test. Moreover, the Table contains the IC50 value defined above for all test compounds listed therein as well as data concerning the acute toxicity of certain of these compounds (LD50 in mg/kg in the case of single oral administration to mice).

Schistosoma mansoni [3] = assay: Schistosomicidal activity in infected mice; format: in vivo; details: for Schistosomicidal activity in %: Mouse
Protocol: (§2) Mice and golden hamsters are infected subcutaneously with 60 cercaria of Schistosoma mansoni. About 42 days after the infection, they are treated orally with a single dosage of the preparation to be tested. 5 animals are used per preparation and dosage. 10 untreated animals are used as controls. The animals are killed and dissected 2 weeks (hamster) or 3 weeks (mice) after the treatment. Worm pairs in mesenteric veins, portal vein and liver are dissected-out, counted and the condition of the worms (living or dead) are registered. A schistosomicidal activity of a preparation manifests itself in the appearance of dead worms in the vessels of the liver. Dead worms are never found in untreated control animals. The test is evaluated by calculating the percentage of dead worm pairs in the liver of infected, treated animals.

Schistosoma mansoni [4] = assay: Schistosomicidal activity in infected golden hamsters; format: in vivo; details: Hamster
Protocol: as §2

Schistosoma mansoni [5] = assay: In vitro schistosomicidal activity (motility of worm pairs); format: cell-based; design: key to Activity: worm pairs motionless within 15 minutes; b: worm pairs show normal motility during the test period of 120 hours; details: for Activity: 37° C., 120 hours
Protocol: In order to test the in vitro activity of preparations, worm pairs of Schistosoma mansoni are isolated from mice and incubated at 37° C. in a nutrient medium. Preparations are added in the form of a solution or as a suspension. The motility of the worms is observed under a microscope and registered during the test period of 120 hours. A schistosomicidal activity of a preparation manifests itself in the more or less rapid loss of motility of the worms. Control worms in the nutrient medium without the addition of a preparation maintain their normal motility during the entire test period of 120 hours.

[6] = Acute toxicity, single oral administration to mice; details: mouse, in vivo
From the text: as §1

Row | Compound | IC50 [1] [nM] | ED50 [2] [mg/kg] | also measured
1 | CN1Cc2c(C(=O)OC(C)(C)C)ncn2-c2cccc(I)c2C1=O [(a) H I --CH3 O, t-butyl 5,6-dihydro-7-iodo-5-methyl-6-oxo-4H-imidazo[1,5-a][1,4]benzodiazepine-3-carboxylate] | 2.6 | 0.14 | 
2 | CN1C(=O)CN=C(c2ccccc2)c2cc(Cl)ccc21 [diazepam, reference compound] |  |  | experimental animals protected from convulsive attacks in the pentetrazole test ([2]; diazepam 5 mg/kg i.p., more than 900 mice): protects all experimental animals from convulsive attacks
3 | CC1N=C(c2ccccc2Cl)c2cc([N+](=O)[O-])ccc2NC1=O (single isomer, unassigned; (+)) [Compound S, (+)-5-(o-chlorophenyl)-1,3-dihydro-3-methyl-7-nitro-2H-1,4-benzodiazepin-2-one, reference compound] |  |  | Schistosomicidal activity in % (Schistosoma mansoni [3]; Compound S 75 mg/kg p.o. alone): 100%; Schistosomicidal activity in % (Schistosoma mansoni [4]; Compound S 75 mg/kg p.o. alone): 100%; Activity (Schistosoma mansoni [5]; Compound S 25 ug/ml alone): a (worm pairs motionless within 15 minutes)
4 | CN1Cc2c(C(=O)OC(C)(C)C)ncn2-c2cccc(Br)c2C1=O [(a) H Br --CH3 O, t-butyl 7-bromo-5,6-dihydro-5-methyl-6-oxo-4H-imidazo[1,5-a][1,4]benzodiazepine-3-carboxylate] | 2.3 | 0.13 | 
5 | CN1Cc2c(C(=O)OC(C)(C)C)ncn2-c2cccc(Cl)c2C1=O [(a) H Cl --CH3 O, t-butyl 7-chloro-5,6-dihydro-5-methyl-6-oxo-4H-imidazo[1,5-a][1,4]benzodiazepine-3-carboxylate] | 3 | 0.2 | LD50 [6]: 312 mg/kg; Schistosomicidal activity in % (Schistosoma mansoni [3]; Compound A 300 mg/kg p.o. alone): 0%; influence on schistosomicidal activity of compound S (Schistosoma mansoni [3]; animal tests (mice and hamsters)): not influenced detrimentally; Schistosomicidal activity in % (Schistosoma mansoni [4]; Compound A 225 mg/kg p.o. alone): 0%; Activity (Schistosoma mansoni [5]; Compound A 25 ug/ml alone): b; Activity (Schistosoma mansoni [5]; Compound A 100 ug/ml alone): b; influence on schistosomicidal activity of compound S (Schistosoma mansoni [5]; in vitro test): not influenced detrimentally
6 | CN1Cc2c(C(=O)OC(C)(C)C)ncn2-c2ccccc2C1=S [(a) H H --CH3 S, t-butyl 5,6-dihydro-5-methyl-6-thioxo-4H-imidazo[1,5-a][1,4]benzodiazepine-3-carboxylate] | 8.9 | 7.1 | 
7 | CN1Cc2c(C(=O)OC(C)(C)C)ncn2-c2cccc(C#N)c2C1=O [(a) H CN --CH3 O, t-butyl 7-cyano-5,6-dihydro-5-methyl-6-oxo-4H-imidazo[1,5-a][1,4]benzodiazepine-3-carboxylate] | 10 | 1.22 | 
8 | CN1Cc2c(C(=O)OC(C)(C)C)ncn2-c2ccc(F)cc2C1=O [(a) F H --CH3 O, t-butyl 8-fluoro-5,6-dihydro-5-methyl-6-oxo-4H-imidazo[1,5-a][1,4]benzodiazepine-3-carboxylate] | 1.4 | 8.4 | 
9 | CN1Cc2c(C(=O)OC(C)(C)C)ncn2-c2ccccc2C1=O [(a) H H --CH3 O, t-butyl 5,6-dihydro-5-methyl-6-oxo-4H-imidazo[1,5-a][1,4]benzodiazepine-3-carboxylate] | 3.3 | 4.7 | LD50 [6]: 625 mg/kg
